Measured values reported in patent US12522593B2, “Azacycloalkyl carbonyl cyclic amine compound” (Alivexis, Inc., priority 2022, dated 2026).

Tests used:
[1] = target: CTSC in U937 cells (Homo sapiens (Human), UniProt P53634); assay: Intracellular CTSC inhibition assay (in vitro), LLOMe-induced cell death in U937 cells; type: cell-based; conditions: 3 hours culture, CellTiter-Glo
How it was run: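 U937 cells in RPMI-1640 with 10% FBS were preincubated 30 min with compound ([…], 3-fold dilutions). A 300 μmol/L LLOMe solution was then added, which drives CTSC-dependent cell death, and cells were cultured 3 h. Viability read by CellTiter-Glo luminescence; IC50 from 4-parameter fit.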

[2] = target: human recombinant CTSC (Homo sapiens (Human), UniProt P53634); assay: CTSC inhibition assay (in vitro), fluorescent substrate GF-AFC; type: biochemical; conditions: 30 μmol/L GF-AFC, pH 5.0, 25° C.
Chain of human recombinant CTSC (P53634 25-134): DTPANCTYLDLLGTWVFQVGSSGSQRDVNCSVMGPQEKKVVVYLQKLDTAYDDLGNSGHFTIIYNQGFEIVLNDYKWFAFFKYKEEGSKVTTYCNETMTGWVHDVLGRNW
Chain of human recombinant CTSC (P53634 231-394): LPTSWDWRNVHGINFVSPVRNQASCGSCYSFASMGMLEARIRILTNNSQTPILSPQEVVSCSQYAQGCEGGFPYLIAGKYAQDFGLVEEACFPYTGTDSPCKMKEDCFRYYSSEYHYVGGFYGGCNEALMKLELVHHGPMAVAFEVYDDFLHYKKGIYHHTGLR
Chain of human recombinant CTSC (P53634 395-463): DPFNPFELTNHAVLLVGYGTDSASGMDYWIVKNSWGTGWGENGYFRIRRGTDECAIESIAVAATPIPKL
How it was run: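 Recombinant human CTSC pre-activated with cathepsin L (18° C, 30 min), then preincubated with compound 30 min at 25° C in pH 5.0 MES buffer with 5 mmol/L DTT (0.66 ng/mL CTSC, 0.15% DMSO). Cleavage of 30 μmol/L GF-AFC read after 1 h at 25° C (ex 390/em 505 nm); IC50 by 4-parameter fit.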

Chain of CTSC in U937 cells (P53634 25-463): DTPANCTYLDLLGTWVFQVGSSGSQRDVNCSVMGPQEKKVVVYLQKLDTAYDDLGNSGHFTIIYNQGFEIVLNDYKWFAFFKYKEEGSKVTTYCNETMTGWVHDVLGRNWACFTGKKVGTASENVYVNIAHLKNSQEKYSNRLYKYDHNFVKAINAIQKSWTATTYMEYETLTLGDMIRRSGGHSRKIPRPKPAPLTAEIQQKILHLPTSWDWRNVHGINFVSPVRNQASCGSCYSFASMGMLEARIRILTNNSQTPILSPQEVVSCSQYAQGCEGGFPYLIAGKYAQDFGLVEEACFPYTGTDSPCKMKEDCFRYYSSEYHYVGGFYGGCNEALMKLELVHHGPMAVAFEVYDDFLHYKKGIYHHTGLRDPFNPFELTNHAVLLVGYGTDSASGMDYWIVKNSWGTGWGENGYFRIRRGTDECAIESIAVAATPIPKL

Row | Compound | IC50 [1] | IC50 [2]
1 | O=C([C@@H]1C[C@@H](O)C2(CCC2)CN1)N1CCC(c2cn(C3CCC(F)(F)CC3)nn2)(C(F)(F)F)CC1 [Example 81] | 13.7 nM | 1.31 nM
2 | CC(C)C1(c2noc(C3CCC(F)(F)CC3)n2)CCN(C(=O)C2CCC3(CCC3)CN2)CC1 (centres unmarked) [Example 42] | 2.28 nM | 7.19 nM
3 | O=C([C@@H]1C[C@@H](O)C2(CCC2)CN1)N1CCC(c2cnn(-c3ccc(F)cc3)c2)CC1 [Example 93] | 0.77 nM | 3.92 nM
4 | O=C([C@@H]1C[C@@H](O)C2(CCC2)CN1)N1CCC(c2nc(C3CC(F)(F)C3)no2)(C(F)(F)F)CC1 [Example 2, (4-(3-(3,3-Difluorocyclobutyl)-1,2,4-oxadiazol-5-yl)-4-(trifluoromethyl)piperidin-1-yl)((7S,9R)-9-hydroxy-6-azaspiro[3.5]nonan-7-yl)methanone] | 0.89 nM | 2.36 nM
5 | O=C([C@@H]1C[C@@H](O)C2(CCC2)CN1)N1CCC(c2noc(C3CCCCO3)n2)(C(F)(F)F)CC1 (some centres unmarked) [Example 59] | 0.7 nM | 3.61 nM
6 | O=C([C@@H]1C[C@@H](O)C2(CCC2)CN1)N1CCC(c2cn(-c3ccc(F)cc3)nn2)CC1 [Example 98] | 3.8 nM | 4.15 nM
7 | CC(C)C1(c2nc(C3CCC(F)(F)CC3)no2)CCN(C(=O)[C@@H]2C[C@@H](O)C3(CCC3)CN2)CC1 [Example 12] | 0.34 nM | 1.03 nM
8 | O=C([C@@H]1CC[C@@]2(CCO2)CN1)N1CCC(c2ccc(F)cc2)(c2nnc(C3CCC(F)(F)CC3)o2)CC1 [Example 87] | 4.02 nM | 3.54 nM
9 | CC(C)C1(c2noc(C3CC(F)(F)C3)n2)CCN(C(=O)[C@@H]2C[C@@H](O)C3(CCC3)CN2)CC1 [Example 5] | 1.01 nM | 1.08 nM
10 | CC(C)C1(C(=O)N(C)CC2CCC(F)(F)CC2)CN(C(=O)[C@@H]2C[C@@H](O)C3(CCC3)CN2)C1 [Example 17] | 21.4 nM | 1.01 nM
11 | CC(C)C1(c2noc(C3CCC(F)(F)CC3)n2)CCN(C(=O)[C@@H]2CC[C@@]3(CCO3)CN2)CC1 [Example 86] | 1.06 nM | 1.43 nM
12 | CC(C)C1(c2nnc(C3CCC(F)(F)CC3)o2)CCN(C(=O)[C@@H]2C[C@@H](O)C3(CCC3)CN2)CC1 [Example 14] | 4 nM | 1.35 nM
13 | O=C([C@@H]1C[C@@H](O)C2(CCC2)CN1)N1CCC(c2noc(C3CC(F)(F)C3)n2)(c2cccs2)CC1 [Example 70] | 1.1 nM | 1.63 nM
14 | CC(C)C1(c2noc(C3CCC(F)(F)CC3)n2)CCN(C(=O)[C@@H]2CCC3(CC3)CN2)CC1 [Example 46] | 42.5 nM | 53.5 nM
15 | CC(C)C1(C(=O)NCC2CCC(F)(F)CC2)CN(C(=O)[C@@H]2C[C@@H](O)C3(CCC3)CN2)C1 [Example 20] | 227 nM | 0.83 nM
16 | CC(C)C1(c2noc(C3CCC(F)(F)CC3)n2)CCN(C(=O)[C@@H]2C[C@H](F)CN2)CC1 [Example 24] | > 1000 nM | 151 nM
17 | CC1(C)CN[C@H](C(=O)N2CCC(c3nc(C4CCC(F)(F)CC4)no3)(C(F)(F)F)CC2)C[C@H]1O [Example 57] | 0.55 nM | 3.57 nM
18 | O=C([C@@H]1C[C@@H](O)C2(CCC2)CN1)N1CCC(C(=O)N2CCO[C@@H](C(F)(F)F)C2)(C(F)(F)F)CC1 [Example 37] | 10.1 nM | 28.4 nM
19 | CC(C)C1(c2noc(C3CCC(F)(F)CC3)n2)CCN(C(=O)[C@@H]2C[C@@H](O)C3(CCC3)CN2)CC1 [Example 82] | 0.25 nM | 0.93 nM
20 | O=C([C@@H]1C[C@@H](O)C2(CCC2)CN1)N1CCC(c2noc(C3CCC(F)(F)CO3)n2)(C(F)(F)F)CC1 (stereo partly drawn) [Example 50, (4-(5-(5,5-difluorotetrahydro-2H-pyran-2-yl)-1,2,4-oxadiazol-3-yl)-4-(trifluoromethyl)piperidin-1-yl)((7S,9R)-9-hydroxy-6-azaspiro[3.5]nonan-7-yl)methanone] | 0.8 nM | 1.53 nM
21 | O=C([C@@H]1C[C@@H](O)C2(CCC2)CN1)N1CCC(c2nnn(C3CCC(F)(F)CC3)n2)CC1 [Example 97] | 3.26 nM | 1.79 nM
22 | CS[C@@H]1CN[C@H](C(=O)N2CCC(c3noc(C4CCC(F)(F)CC4)n3)(C(C)C)CC2)C1 [Example 28] | 596 nM | 254 nM
